According to BindingDB's records for doi:10.1021/jm0408316 (University of Genoa, 2005):
Where a name gives a salt, the structure may show the parent alone.

What was measured:
[1] = Inhibition of benzylamine binding to Benzylamine oxidase of porcine serum
[2] = target: Diamine oxidase (Sus scrofa); assay: Inhibition of putrescine binding to against Diamine oxidase of porcine kidney

IC50 [1] [µM] | IC50 [2] [µM] | SMILES
0.02 |  | CCNc1cncc(N(C)CC)c1CN [4-(aminomethyl)-N-ethyl-5-[ethyl(methyl)-lambda~5~-azanyl]pyridin-3-amine dihydrochloride]
100 |  | CC(C)Nc1cnccc1CN [4-(aminomethyl)-N-isopropylpyridin-3-amine dihydrochloride]
350 |  | CCCNc1cncc(N(C)CCC)c1CN [4-(aminomethyl)-5-[methyl(propyl)-lambda~5~-azanyl]-N-propylpyridin-3-amine dihydrochloride]
0.17 |  | CCOc1cncc(OCC)c1CN [(3,5-diethoxypyridin-4-yl)methylamine dihydrochloride]
8 |  | CNc1cnccc1CN [4-(aminomethyl)-N-methylpyridin-3-amine dihydrochloride]
> 100 |  | NCc1ccncc1NC1CC1 [4-(aminomethyl)-N-cyclopropylpyridin-3-amine dihydrochloride hydrate]
5.6 |  | NCc1ccncc1NCC1CCCCC1 [4-(aminomethyl)-N-(cyclohexylmethyl)pyridin-3-amine dihydrochloride hydrate]
16 |  | NCc1ccncc1NC1CCCC1 [4-(aminomethyl)-N-cyclopentylpyridin-3-amine dihydrochloride]

Continued, compound first:

SMILES | IC50 [1] [µM] | IC50 [2] [µM]
NCc1c(OCCCCO)cncc1OCCCCO [4-{[4-(aminomethyl)-5-(4-hydroxybutoxy)pyridin-3-yl]oxy}butan-1-ol dihydrochloride] | 0.15 | 
CNc1cncc(N(C)C)c1CN [4-(aminomethyl)-5-(dimethyl-lambda~5~-azanyl)-N-methylpyridin-3-amine dihydrochloride dihydrate] | 0.44 | 0.061
CCNc1cnccc1CN [4-(aminomethyl)-N-ethylpyridin-3-amine dihydrochloride] | 2 | 
CCSc1cncc(SCC)c1CN | 0.13 | 
CC(C)Nc1cncc(N(C)C(C)C)c1CN [4-(aminomethyl)-N-isopropyl-5-[isopropyl(methyl)-lambda~5~-azanyl]pyridin-3-amine dihydrochloride] | > 0.1 | 1
NCc1ccncc1N [4-(aminomethyl)pyridin-3-amine dihydrochloride] | 16 | 
CCOc1cncc(OCc2ccccc2)c1CN [[3-(benzyloxy)-5-ethoxypyridin-4-yl]methylamine dihydrochloride] | 5 | 
CNc1cncc(NC)c1CN [4-(aminomethyl)-N-methyl-5-(methyl-lambda~5~-azanyl)pyridin-3-amine dihydrochloride] | 1.7 | 0.12
NCc1c(OCCO)cncc1OCCO [2-{[4-(aminomethyl)-5-(2-hydroxyethoxy)pyridin-3-yl]oxy}ethanol dihydrochloride trihydrate] | 3.2 | 
CNc1ccccc1CN [N-[2-(aminomethyl)phenyl]-N-methylamine dihydrochloride] | > 100 | 
NCc1ccncc1NC1CCCCCC1 [4-(aminomethyl)-N-cycloheptylpyridin-3-amine dihydrochloride hydrate] | 79 | 
CC(C)(C)Sc1cncc(SC(C)(C)C)c1CN | 1.6 | > 1000
NCc1ccncc1N(C1CCCC1)C1CCCC1 [4-(aminomethyl)-N,N-dicyclopentylpyridin-3-amine dihydrochloride] | 100 | 
